The target of one data set is Cytochrome P450 2C9 (Homo sapiens, UniProt P11712). Nature of the data set: Inhibition of CYP2C9. It is filed as ADME.
For a further data set, the species on record is Homo sapiens. Put plainly: Selectivity ratio of EC50 for S1P3 receptor to EC50 for S1P1 receptor.
Data set [1] addresses Sphingosine 1-phosphate receptor 3 (Homo sapiens, UniProt Q99500). Put plainly: Agonist activity against S1P3 receptor by cell based FRET assay. The format is functional.
Another data set addresses Cytochrome P450 2C19 (Homo sapiens, UniProt P33261). Put plainly: Inhibition of CYP2C19. The format is ADME.
Data set [2] is described as follows: Oral bioavailability in mouse. The following applies: in vivo. It is filed as ADME, organism-based.
A short description of data set [3]: Stability of the compound assessed as glutathione adduct formation. The format is physicochemical.
A further data set addresses Cytochrome P450 2D6 (Homo sapiens, UniProt P10635). Put plainly: Inhibition of CYP2D6. The format is ADME.
The nature of data set [4]: Percentage unbound in human plasma. The format is ADME, cell-free.
The next data set has as its target T1, Cytochrome P450 1A2 (Homo sapiens, UniProt P05177).
T1 sequence (P05177 whole entry): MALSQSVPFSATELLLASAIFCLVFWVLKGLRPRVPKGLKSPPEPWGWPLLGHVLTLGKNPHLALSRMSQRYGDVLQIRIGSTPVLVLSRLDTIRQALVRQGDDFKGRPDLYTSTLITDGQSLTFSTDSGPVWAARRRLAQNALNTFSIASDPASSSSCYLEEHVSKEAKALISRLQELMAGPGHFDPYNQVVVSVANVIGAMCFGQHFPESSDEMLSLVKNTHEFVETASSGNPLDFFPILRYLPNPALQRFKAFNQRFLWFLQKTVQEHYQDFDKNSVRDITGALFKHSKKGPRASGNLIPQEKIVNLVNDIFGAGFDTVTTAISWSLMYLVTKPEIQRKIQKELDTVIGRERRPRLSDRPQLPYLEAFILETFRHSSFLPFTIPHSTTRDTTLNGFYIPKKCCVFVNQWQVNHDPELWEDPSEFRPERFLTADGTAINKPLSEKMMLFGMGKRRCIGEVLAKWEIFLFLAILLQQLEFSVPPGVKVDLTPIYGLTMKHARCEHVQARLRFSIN
Nature of the data set: Inhibition of CYP1A2. It is filed as ADME.

Data set [5] is described as follows: Ratio of drug level in brain to blood in C57BL/6 mouse at 2 mg/kg, ip after 1 hr. It is filed as ADME, organism-based. More on the design: dose 2 mg/kg, route intraperitoneal.
Another data set has as its target Cytochrome P450 3A4 (Homo sapiens, UniProt P08684). Nature of the data set: Inhibition of CYP3A4. The format is ADME.
The nature of data set [6]: Ratio of drug level in brain to blood in C57BL/6 mouse at 2 mg/kg, ip after 4 hrs. It is filed as ADME, organism-based. Details: dose 2 mg/kg, route intraperitoneal.
Data set [7] in a line: Oral bioavailability in Sprague-Dawley rat at 2 mg/kg. It is filed as ADME, organism-based. The following applies: in vivo.
Data set [8] can be described thus: Half life in mouse. It is filed as ADME, organism-based. The following applies: in vivo.
Data set [9] concerns Mus musculus. Put plainly: Decrease in lymphocyte count in mouse acute lymphopenia model at 1 mg/kg, po after 4 hrs by flow cytometry relative to base line. The format is functional. More on the design: scale not given: the % may be the effect or the level left. (In general: In flow cytometry, cells or beads pass a laser one at a time.)
Data set [10] in a line: Half life in Sprague-Dawley rat at 1 mg/kg, iv and 2 mg/kg, po. It is filed as ADME, organism-based. As to conditions: in vivo.
The test system of data set [11] is Mus musculus. Put plainly: Decrease in lymphocyte count in mouse acute lymphopenia model at 1 mg/kg, po after 24 hrs by flow cytometry relative to base line. The format is functional. More on the design: scale not given: the % may be the effect or the level left.
Data set [12] has as its target Sphingosine 1-phosphate receptor 1 (Homo sapiens, UniProt P21453). Put plainly: Agonist activity against S1P1 receptor by cell based FRET assay. The format is functional.
The subject of data set [13] is Mus musculus. Nature of the data set: Antiinflammatory activity in C57BL/6 mouse EAE model assessed as decrease in clinical symptoms at 1 mg/kg, po administered qd after 10 days post immunization. It is filed as functional, organism-based. Details: dose 1 mg/kg.
Data set [14] in a line: Solubility of the compound. It is filed as physicochemical.
Data set [15] is described as follows: Permeability of the compound. The format is ADME. The following applies: not told; read-out: permeability.
A short description of data set [16]: AUC (0 to 24 hrs) in mouse. The format is ADME, organism-based. More on the design: time < 24 hr. The following applies: plasma.
The test system of data set [17] is Rattus norvegicus. Nature of the data set: Antiinflammatory activity in rat assessed as decrease in lymphocyte count at 1 mg/kg, po qd for 7 days measured after 3 days of last post dose relative to control. More on the design: scale not given: the % may be the effect or the level left. The format is functional.
In data set [18] the test system is Rattus norvegicus. Put plainly: Antiinflammatory activity in rat assessed as decrease in lymphocyte count at 1 mg/kg, po qd for 7 days relative to base line. It is filed as functional. More on the design: scale not given: the % may be the effect or the level left.
For data set [19], the species on record is Rattus norvegicus. Put plainly: Decrease in lymphocyte count in rat after 60 hrs. It is filed as functional, organism-based.
The species entered for data set [20] is Rattus norvegicus. Put plainly: Decrease in lymphocyte count in rat. It is filed as functional, organism-based.
Data set [21] is described as follows: Percentage unbound in rat plasma. The format is ADME, cell-free.

Converted amounts (≈) assume the structure as drawn. The source made the active and inactive calls. The calls are words filed in the database; no cut-off is given here.

Broadly, the IC50 is the midpoint of a concentration-inhibition curve. For orientation: EC50 means the concentration that produces a half-maximal response. In general, bioavailability refers to the share of a dose that reaches the circulation, judged against a reference dose that is usually intravenous. As a reminder, the fraction unbound is free concentration divided by total concentration. In general, Kp refers to the ratio of the level in a tissue or fluid to that in plasma or blood. A word on the half-life: it is how long it takes for the measured level to halve. As usually defined, the solubility is the concentration that dissolves in the medium under given conditions. Usually AUC(0-t) stands for exposure summed from dosing to a finite time, without extrapolation to infinity.

Cytochrome P450 2C19, sequence (P33261 whole entry): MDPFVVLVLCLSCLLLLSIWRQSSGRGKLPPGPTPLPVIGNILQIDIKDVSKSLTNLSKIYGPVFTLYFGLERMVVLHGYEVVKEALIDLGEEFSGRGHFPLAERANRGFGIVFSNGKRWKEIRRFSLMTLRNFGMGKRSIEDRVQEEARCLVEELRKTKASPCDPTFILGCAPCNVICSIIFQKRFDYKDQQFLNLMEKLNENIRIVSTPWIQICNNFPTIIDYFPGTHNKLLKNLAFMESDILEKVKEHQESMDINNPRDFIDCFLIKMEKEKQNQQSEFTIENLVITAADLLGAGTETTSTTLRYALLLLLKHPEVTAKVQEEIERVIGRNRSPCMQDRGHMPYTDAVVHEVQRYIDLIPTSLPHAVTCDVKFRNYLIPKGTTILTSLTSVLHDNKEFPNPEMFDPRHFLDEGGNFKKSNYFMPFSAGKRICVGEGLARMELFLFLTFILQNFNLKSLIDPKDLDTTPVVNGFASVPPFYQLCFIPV
Cytochrome P450 2D6, sequence (P10635 whole entry): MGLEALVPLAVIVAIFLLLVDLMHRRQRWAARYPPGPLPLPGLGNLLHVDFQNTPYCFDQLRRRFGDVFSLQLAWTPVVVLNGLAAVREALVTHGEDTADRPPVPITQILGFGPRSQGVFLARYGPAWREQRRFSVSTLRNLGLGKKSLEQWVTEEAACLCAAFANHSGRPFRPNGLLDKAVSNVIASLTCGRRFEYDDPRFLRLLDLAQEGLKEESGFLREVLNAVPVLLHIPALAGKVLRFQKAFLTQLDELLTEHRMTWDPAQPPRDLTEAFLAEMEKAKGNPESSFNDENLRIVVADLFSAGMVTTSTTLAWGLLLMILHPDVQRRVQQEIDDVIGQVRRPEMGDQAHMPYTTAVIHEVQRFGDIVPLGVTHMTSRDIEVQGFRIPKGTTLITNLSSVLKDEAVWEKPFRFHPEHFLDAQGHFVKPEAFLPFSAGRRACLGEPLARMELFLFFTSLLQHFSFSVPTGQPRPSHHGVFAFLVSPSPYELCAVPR
Cytochrome P450 3A4, sequence (P08684 whole entry): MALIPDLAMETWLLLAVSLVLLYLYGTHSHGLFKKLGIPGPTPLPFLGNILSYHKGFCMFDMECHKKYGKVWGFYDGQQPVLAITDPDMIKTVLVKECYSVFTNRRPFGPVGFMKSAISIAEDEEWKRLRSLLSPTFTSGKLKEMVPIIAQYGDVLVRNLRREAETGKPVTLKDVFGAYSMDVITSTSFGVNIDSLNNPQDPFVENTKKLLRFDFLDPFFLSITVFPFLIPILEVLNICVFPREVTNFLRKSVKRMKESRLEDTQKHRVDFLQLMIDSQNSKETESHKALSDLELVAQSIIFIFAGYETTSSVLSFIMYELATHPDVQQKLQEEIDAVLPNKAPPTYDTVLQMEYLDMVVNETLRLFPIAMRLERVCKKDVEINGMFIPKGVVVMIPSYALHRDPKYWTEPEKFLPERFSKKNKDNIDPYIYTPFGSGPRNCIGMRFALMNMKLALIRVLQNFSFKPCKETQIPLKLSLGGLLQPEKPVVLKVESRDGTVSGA
Cytochrome P450 2C9, sequence (P11712 whole entry): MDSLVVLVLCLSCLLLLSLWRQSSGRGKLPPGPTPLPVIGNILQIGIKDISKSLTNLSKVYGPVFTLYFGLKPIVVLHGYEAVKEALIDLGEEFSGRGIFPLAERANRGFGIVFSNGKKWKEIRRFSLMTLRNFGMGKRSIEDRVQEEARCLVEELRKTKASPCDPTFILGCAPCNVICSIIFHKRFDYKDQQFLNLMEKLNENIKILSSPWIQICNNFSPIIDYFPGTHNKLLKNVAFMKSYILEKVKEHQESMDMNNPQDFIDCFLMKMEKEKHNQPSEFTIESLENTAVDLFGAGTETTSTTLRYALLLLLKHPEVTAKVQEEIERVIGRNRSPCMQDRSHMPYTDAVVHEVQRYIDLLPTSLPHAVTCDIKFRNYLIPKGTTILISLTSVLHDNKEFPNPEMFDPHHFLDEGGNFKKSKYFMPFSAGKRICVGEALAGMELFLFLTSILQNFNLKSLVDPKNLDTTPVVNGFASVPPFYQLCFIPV
Sphingosine 1-phosphate receptor 1, sequence (P21453 whole entry): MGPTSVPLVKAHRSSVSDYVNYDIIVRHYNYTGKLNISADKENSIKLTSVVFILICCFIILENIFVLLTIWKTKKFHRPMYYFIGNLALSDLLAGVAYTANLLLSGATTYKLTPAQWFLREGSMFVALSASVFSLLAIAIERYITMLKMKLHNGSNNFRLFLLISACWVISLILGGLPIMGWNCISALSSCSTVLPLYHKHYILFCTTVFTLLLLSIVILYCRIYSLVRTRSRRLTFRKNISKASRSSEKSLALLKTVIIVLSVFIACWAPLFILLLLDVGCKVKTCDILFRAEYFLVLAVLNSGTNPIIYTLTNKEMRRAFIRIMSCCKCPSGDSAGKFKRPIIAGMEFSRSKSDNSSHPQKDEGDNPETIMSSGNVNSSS
Sphingosine 1-phosphate receptor 3, sequence (Q99500 whole entry): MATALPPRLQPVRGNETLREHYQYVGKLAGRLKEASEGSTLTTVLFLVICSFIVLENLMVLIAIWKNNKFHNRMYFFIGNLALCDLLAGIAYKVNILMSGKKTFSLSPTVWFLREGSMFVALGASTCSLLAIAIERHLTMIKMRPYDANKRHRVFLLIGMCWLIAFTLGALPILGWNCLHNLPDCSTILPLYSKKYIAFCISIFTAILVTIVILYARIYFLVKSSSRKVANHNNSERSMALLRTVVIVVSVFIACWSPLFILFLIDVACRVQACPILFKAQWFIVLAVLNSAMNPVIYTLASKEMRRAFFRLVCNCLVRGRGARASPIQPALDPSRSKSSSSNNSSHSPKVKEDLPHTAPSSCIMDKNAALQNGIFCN

Take `CCc1c(CCN2CCC(C(=O)O)CC2)cccc1-c1nsc(-c2ccc(OC(C)C)c(Cl)c2)n1`: the IC50 against Cytochrome P450 2C9, against Cytochrome P450 2C19, at Cytochrome P450 2D6, against Cytochrome P450 1A2 and at Cytochrome P450 3A4 was above 10 µM each time. Besides, the Ratio EC50 in the data set filed under Homo sapiens was above 1000. Besides, the EC50 was above 3.16 µM in data set [1] and 0.000158 µM in data set [12]. Also, the results for the bioavailability in data set [2] and in data set [7] were 40% and 70%, respectively. Further, the Stability result in [3] is recorded as “Stable”. This compound showed a fraction unbound in data set [4] of 0.0045. Moreover, in data set [5], the Kp at 1 h was 0.52. Further, the Kp at 4 h in data set [6] came out at 1.48. Further, the half-life in data set [8] is 15.6 h; in data set [10] it was 27.7 h. The Activity in the data set with Mus musculus [9] worked out at 16%; in the data set on Mus musculus [11], 40%.

Turning to `CCc1c(CCCC(=O)O)cccc1-c1nnc(-c2ccc(OC(C)C)c(C#N)c2)s1`, the outcome with Mus musculus [13] was inactive. For the same compound, the IC50 at Cytochrome P450 2C9, on Cytochrome P450 2D6, against Cytochrome P450 1A2 and at Cytochrome P450 3A4 was above 10 µM throughout. For the same compound, the EC50 in data set [1] is above 10 µM; in data set [12], 0.00126 µM. In data set [14], this compound gave a solubility of 256 µg/mL (≈ 588 µM). The same compound registered a bioavailability in data set [2] of 100%. Also, the Papp in data set [15] was 23 ×10⁻⁶ cm/s. For the same compound, in data set [4], the fraction unbound came to 0.0051. The Kp at 1 h in [5] was found to be 0.21. Also, the AUC(0-t) at 24 h in data set [16] amounted to 5940 ng·h/mL. Besides, in [6], the Kp at 4 h was 0.19. In addition, the half-life in data set [8] was 3.8 h. Further, the Activity is recorded as 37.9% in the data set with Mus musculus [9] and 43.6% with Mus musculus [11].

With `CCc1c(CCN2CCC(C(=O)O)CC2)cccc1-c1nsc(-c2ccc(CC(C)C)c(C#N)c2)n1`, the IC50 was above 10 µM against Cytochrome P450 2C9; above 10 µM against Cytochrome P450 2C19; above 10 µM at Cytochrome P450 2D6; above 10 µM on Cytochrome P450 1A2; above 10 µM against Cytochrome P450 3A4; 0.012 µg/mL (≈ 0.0239 µM) in the data set filed under Rattus norvegicus [20]. Also, the Activity in the data set with Rattus norvegicus [17] is 70%; with Rattus norvegicus [18], 20%; in the data set listed under Rattus norvegicus [20], “Dose-dependent effect”; with Mus musculus [9], 23%; in the data set on Mus musculus [11], 72%. Moreover, in the data set filed under Homo sapiens, the Ratio EC50 is above 1000. In addition, the EC50 in data set [1] is above 3.16 µM; in data set [12] it was 0.000794 µM. The bioavailability in [2] stood at 45%; in data set [7], 50%. The Stability result in data set [3] is on record as “Stable”. Further, the outcome in the data set listed under Rattus norvegicus [19] was inactive. This compound also yielded a fraction unbound in [4] of 0.0064. The Kp at 1 h in [5] came to 0.23. Also, the Kp at 4 h in [6] is 0.65. Besides, the half-life was 5.3 h in [8] and 6.2 h in data set [10].

Regarding `CCc1c(CCCC(=O)O)cccc1-c1noc(-c2ccc(OC(C)C)c(C#N)c2)n1`, the IC50 against Cytochrome P450 2C9, at Cytochrome P450 2C19, against Cytochrome P450 2D6, against Cytochrome P450 1A2 and against Cytochrome P450 3A4 was above 10 µM in each case. Besides, the EC50 in [1] was above 10 µM; in [12] it was 0.0002 µM. This compound also showed a solubility in data set [14] of 46 µg/mL (≈ 110 µM). Also, in data set [15], the Papp was determined as 34.5 ×10⁻⁶ cm/s. Moreover, the Kp at 1 h in data set [5] is 0.53. Further, in [6], the Kp at 4 h turned out to be 0.68. The compound also came in with a fraction unbound in [21] of 0.0004.

`CCc1c(CCCC(=O)O)cccc1-c1cnc(-c2ccc(OC(C)C)c(C#N)c2)nc1`: the outcome in the data set with Mus musculus [13] was Active. Further, the figures for the EC50 in data set [1] and in [12] were above 10 µM and 0.001 µM, respectively. The compound further yielded a solubility in data set [14] of 161 µg/mL (≈ 375 µM). The compound further gave a bioavailability in data set [2] of 78%. In data set [15], the Papp is 19 ×10⁻⁶ cm/s. At Cytochrome P450 2D6, this compound had an IC50 of 6.31 µM. In data set [4], the free fraction (fraction unbound) was 0.0019. For the same compound, in data set [5], the Kp at 1 h was found to be 0.47. In [16], this compound registered an AUC(0-t) at 24 h of 11500 ng·h/mL. Also, the Kp at 4 h in data set [6] is 0.48. The same compound showed a half-life in data set [8] of 8 h. The Activity in the data set on Mus musculus [9] was 34.9%; in the data set on Mus musculus [11] it was 103.2%.

As to `CCc1c(CCCC(=O)O)cccc1-c1nsc(-c2ccc(OC(C)C)c(C#N)c2)n1`, the outcome in the data set with Mus musculus [13] was Active. Moreover, the IC50 at Cytochrome P450 2C9 is 5.01 µM. In addition, the EC50 in data set [1] was above 10 µM; in [12], 0.00251 µM. The compound further showed a solubility in [14] of 160 µg/mL (≈ 367 µM). The same compound showed a bioavailability in data set [2] of 87%. The Papp in data set [15] was found to be 32 ×10⁻⁶ cm/s. Besides, the fraction unbound in data set [4] came to 0.0021. Besides, the Kp at 1 h in data set [5] worked out at 0.36. This compound also returned an AUC(0-t) at 24 h in data set [16] of 2600 ng·h/mL. Also, in data set [6], the partition ratio (Kp) at 4 h is 0.52. Further, the half-life in data set [8] is 1.5 h. Moreover, the figures for the Activity in the data set on Mus musculus [9] and with Mus musculus [11] were 22.7% and 87.9%, respectively.
